Source: patent US6355677B1, “Adrenoleukodystrophy treatments and drug screening” (The Johns Hopkins University, priority 1998, dated 2002)
Several values for one entry are separate records, joined by “and”; a condition that tells them apart may be missing. Identical values can stand only once. Entries after “also recorded” stand apart in the source; their conditions may differ.

Assays:
X-ALD mice = test: In vivo efficacy: VLCFA levels in brain and adrenal glands after dietary treatment; parameters: species or system mouse
Description: To measure the in vivo efficacy of 4-PBA, we supplemented mouse chow and water with 4-PBA.
In vivo delivery of 4-PBA to X-ALD mice. 4-PBA was delivered to X-ALD mice in their regular chow and water. 4-PBA chow was prepared by B'OServ (Holton Industries, Frenchtown, N.J.). […] Brains and adrenal glands from normal LD and X-ALD/4-PBA mice were collected for VLCFA analysis as described.

[1] = test system: X-ALD human lymphoblastoid cells; test: C24:0 β-oxidation ([1-14C]-C24:0 degradation); type: cell-based; conditions: 5 mM 4PBA for 6 days
Description: (§1) Cell lines derived from X-ALD patients and X-ALD mice were grown in MEM (fibroblasts) or RPMI (lymphoblastoid cells) supplemented with fetal calf serum (10%), penicillin (100 U/ml), streptomycin (100 U/ml) and glutamine (2 mM). […] Cells in the second flask were grown without drug for the same length of time and served as controls. The media were changed every 3-4 days.
(§2) For VLCFA measurements, total lipids were extracted, converted to methyl esters, purified by TLC and subjected to capillary GC analysis as described. Duplicate assays were set up independently and were assayed on different days. C24:0 β-oxidation activity of human and mouse fibroblasts and human lymphoblastoid cells was determined by measuring their capacity to degrade [1-^14C]-C24:0 fatty acid (American Radiolabeled Chemicals, St. Louis, Mo.) to water-soluble products as described. Phytanic acid oxidation was measured as described. Cells were incubated with [2,3-^3H]-phytanic acid for 24 hours, and the release of ^3H-H2O to the aqueous medium was determined (activity in pmol/hr per mg protein).

[2] = test system: X-ALD mouse primary fibroblasts; test: C24:0 β-oxidation ([1-14C]-C24:0 degradation); type: cell-based; conditions: 5 mM 4PBA for 6 days
Description: as §1, §2

[3] = test system: X-ALD human primary fibroblasts; test: C24:0 β-oxidation ([1-14C]-C24:0 degradation); type: cell-based; conditions: 5 mM 4PBA for 6 days
Description: as §1, §2

[4] = dietary 4-PBA (about 70 mg per day), 6 weeks

Structure (SMILES): O=C(O)CCCc1ccccc1 [4-PBA, 4-Phenyl butyrate]
- Correction of brain C24:0 (X-ALD mice; [4]): complete correction; also recorded: complete normalization
- Correction of brain C26:0 (X-ALD mice; [4]): 78% and 80%
- Adrenal gland VLCFA (C24:0 and C26:0) levels (X-ALD mice; dietary 4-PBA, 4 weeks): substantial reduction
- Brain VLCFA (C24:0 and C26:0) levels (X-ALD mice; dietary 4-PBA, 4 weeks): substantial reduction
- C24:0 β-oxidation, Increase (treated over untreated) [1]: twofold to threefold
- C24:0 β-oxidation, Treated (mean specific activity) [1]: 0.18 ± 0.03 nmol/hr per mg protein
- C24:0 β-oxidation, Increase (treated over untreated) [2]: twofold to threefold
- C24:0 β-oxidation, Treated (mean specific activity) [2]: 0.28 ± 0.03 nmol/hr per mg protein
- C24:0 β-oxidation, Increase (treated over untreated) [3]: twofold to threefold
- C24:0 β-oxidation, Treated (mean specific activity) [3]: 0.39 ± 0.07 nmol/hr per mg protein
